The values that follow come from patent US20250179059A1 (The Regents of the University of California, priority 2021, published 2025).

The test addresses T1, human BRD4 bromodomain II (Homo sapiens, UniProt O60885).
T1 construct: human BRD4 bromodomain II [based on Genbank NM_058243, residues 349-460]; host or cells: E. coli
Put plainly: Bromodomain binding assay (AlphaScreen), BRD4 BDII. Conditions: Table C2. The method, boiled down:
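AlphaScreen competition: His6-BRD4 BDI (aa 44-170) or BDII (aa 349-460) vs biotin-H4(1-21) K5/K8/K12/K16Ac peptide; Ni-chelate acceptor/streptavidin donor beads. HEPES pH 7.5, NaCl, CHAPS, BSA, 1% DMSO; RT. 10-pt 3-fold titration, % peptide binding fitted → IC50.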
Background: Bead proximity is the source of the signal in Alpha formats.

The mark [1] stands for this setting: AlphaScreen assay, read-out: BRD4 BDII IC50.

Where a name gives a salt, the structure may show the parent alone. Read-outs that look alike come from different tables or passages of the source. Where only a bound is given, the exact number is not on record here.

A word on the IC50: it is the concentration that gives 50% inhibition. Regarding `CN1CCN(c2ccc(-c3cccc(-c4cc(N5CCNCC5)no4)c3O)cc2)C1=O` [Example 65, 1-(2′-Hydroxy-3′-(3-(piperazin-1-yl)isoxazol-5-yl)-[1,1′-biphenyl]-4-yl)-3-methylimidazolidin-2-one 2,2,2-trifluoroacetate], under setting [1], the IC50 lay within 10 to 100 nM. With `CCc1cccc(-c2cccc(-c3ccc(NC(C)=O)c(F)c3)c2O)c1` [Example 79, N-(3″-Ethyl-3-fluoro-2′-hydroxy-[1,1′:3′,1″-terphenyl]-4-yl)acetamide], under setting [1], the IC50 is more than 100 nM. Regarding `CC(=O)Nc1ccc(-c2cccc(-c3cccc(N4CCC(CN)C4)c3)c2O)cc1F` (stereo not shown) [Example 203, N-(3″-(3-(aminomethyl)pyrrolidin-1-yl)-3-fluoro-2′-hydroxy-[1,1′:3′,1″-terphenyl]-4-yl)acetamide], the IC50 under setting [1] lay in the range of 1 to 10 nM. Turning to `COc1cc(-c2cccc(-c3cc(Cl)c(N4CCCC4=O)c(Cl)c3)c2O)ccc1NC(C)=O` [Example 165, N-(3″,5″-dichloro-2′-hydroxy-3-methoxy-4″-(2-oxopyrrolidin-1-yl)-[1,1′:3′,1″-terphenyl]-4-yl)acetamide], the IC50 under setting [1] is more than 100 nM.

On to `CC(=O)Nc1ccc(-c2cccc(-c3cc(N4CCNCC4)no3)c2O)cc1OC1CC2(COC2)C1` [Example 28, N-(3-(2-Oxaspiro[3.3]heptan-6-yloxy)-2′-hydroxy-3′-(3-(piperazin-1-yl)isoxazol-5-yl)-[1,1′-biphenyl]-4-yl)acetamide 2,2,2-trifluoroacetate], for which the IC50 under setting [1] was in the range of 10 to 100 nM. As for `COc1cc(-c2cccc(-c3cc(F)c(NC(C)=O)c(F)c3)c2O)ccc1NC(C)=O` [Example 128, N,N′-(3,5-Difluoro-2′-hydroxy-3″-methoxy-[1,1′:3′,1″-terphenyl]-4,4″-diyl)diacetamide], under setting [1], the IC50 was in the range of 10 to 100 nM. In the case of `CC(=O)Nc1ccc(-c2cccc(-c3cccc(N4CCC5(CCNCC5)CC4)c3)c2O)cc1F` [Example 195, N-(3-fluoro-2′-hydroxy-3″-(3.9-diazaspiro[5.5]undecan-3-yl)-[1,1′:3′,1″-terphenyl]-4-yl)acetamide], the IC50 under setting [1] was 10 to 100 nM. For the compound `CC(=O)Nc1ccc(-c2cccc(-c3cc(N4CCNCC4)no3)c2O)cc1C` [Example 21, N-(2′-Hydroxy-3-methyl-3′-(3-(piperazin-1-yl)isoxazol-5-yl)-[1,1′-biphenyl]-4-yl)acetamide hydrochloride], the IC50 under setting [1] is more than 100 nM.

In the case of `CC(=O)Nc1ccc(-c2cccc(-c3ccc(N4CCOCC4)cc3)c2O)cc1F` [Example 94, N-(3-Fluoro-2′-hydroxy-4″-morpholino-[1,1′:3′,1″-terphenyl]-4-yl)acetamide], the IC50 under setting [1] was more than 100 nM. Same read-out and setting: under `CC(=O)Nc1ccc(-c2cccc(-c3cc(N4CCNCC4)no3)c2O)cc1OC(F)F` [Example 26, N-(3-(Difluoromethoxy)-2′-hydroxy-3′-(3-(piperazin-1-yl)isoxazol-5-yl)-[1,1′-biphenyl]-4-yl)acetamide 2,2,2-trifluoroacetate] stands more than 100 nM. Take `CC(=O)Nc1ccc(-c2cccc(-c3ccc(NC(C)=O)c(OC4CCCC4)c3)c2O)cc1F` [Example 73, N,N′-(3-(Cyclopentyloxy)-3″-fluoro-2′-hydroxy-[1,1′:3′,1″-terphenyl]-4,4″-diyl)diacetamide]: under setting [1], the IC50 is more than 100 nM. As for `CC(=O)Nc1ccc(-c2cccc(-c3cc(N4CCNCC4)no3)c2O)cc1C#N` [Example 64, N-(3-Cyano-2′-hydroxy-3′-(3-(piperazin-1-yl)isoxazol-5-yl)-[1,1′-biphenyl]-4-yl)acetamide 2,2,2-trifluoroacetate], under setting [1], the IC50 fell in the range of 10 to 100 nM. Turning to `CC(=O)Nc1ccc(-c2cccc(-c3cc(N4CCNCC4)cc(C(F)(F)F)c3)c2O)cc1F` [Example 215, N-(3-fluoro-2′-hydroxy-3″-(piperazin-1-yl)-5″-(trifluoromethyl)-[1,1′:3′,1″-terphenyl]-4-yl)acetamide], the IC50 under setting [1] is 1 to 10 nM. As for `CC(=O)Nc1ccc(-c2cccc(-c3ccnc(N4CCNCC4)c3)c2C(F)F)cc1F` [Example 250, N-(2′-(difluoromethyl)-3-fluoro-3′-(2-(piperazin-1-yl)pyridin-4-yl)-[1,1′-biphenyl]-4-yl)acetamide], the IC50 under setting [1] is more than 100 nM. As to `O=C1CCCN1c1ccc(-c2cccc(-c3ccccc3)c2O)cc1F` [Example 188, 1-(3-fluoro-2′-hydroxy-[1,1′:3′,1″-terphenyl]-4-yl)pyrrolidin-2-one], the IC50 under setting [1] was more than 100 nM. For the compound `CC(=O)Nc1ccc(-c2cccc(-c3cc(N4CCNCC4)no3)c2O)cc1C(C)C` [Example 27, N-(2′-Hydroxy-3-isopropyl-3′-(3-(piperazin-1-yl)isoxazol-5-yl)-[1,1′-biphenyl]-4-yl)acetamide 2,2,2-trifluoroacetate], under setting [1], the IC50 was more than 100 nM. The same measure, in the same setting: under `CC(=O)Nc1ccc(-c2cccc(-c3cc(N4CCNCC4)no3)c2O)cc1OC(F)(F)F` [Example 25, N-(2′-hydroxy-3′-(3-(piperazin-1-yl)isoxazol-5-yl)-3-(trifluoromethoxy)-[1,1′-biphenyl]-4-yl)acetamide] stands more than 100 nM; under `CC(=O)Nc1ccc(-c2cccc(-c3cc(N4CCNCC4)n(C)n3)c2O)cc1F` [Example 160, N-(3-fluoro-2′-hydroxy-3′-(1-methyl-5-(piperazin-1-yl)-1H-pyrazol-3-yl)-[1,1′-biphenyl]-4-yl)acetamide], more than 100 nM; under `CC(=O)Nc1ccc(-c2cccc(-c3ccc(Oc4ccccc4)cc3)c2O)cc1F` [Example 90, N-(3-Fluoro-2′-hydroxy-4″-phenoxy-[1,1′:3′,1″-terphenyl]-4-yl)acetamide], more than 100 nM. In the case of `CC(=O)Nc1ccc(-c2cccc(-c3ccc4ncccc4c3)c2O)cc1F` [Example 120, N-(3-Fluoro-2′-hydroxy-3′-(quinolin-6-yl)-[1,1′-biphenyl]-4-yl)acetamide], under setting [1], the IC50 lay within 10 to 100 nM. On to `COC(=O)c1cc(-c2cccc(-c3ccc(NC(C)=O)c(F)c3)c2O)ccn1` [Example 201, Methyl 4-(4′-acetamido-3′-fluoro-2-hydroxy-[1,1′-biphenyl]-3-yl)picolinate], for which the IC50 under setting [1] is 10 to 100 nM.

For the compound `CC(=O)Nc1ccc(-c2cccc(-c3cccc(N4CCC(N)C4)c3)c2O)cc1F` (stereo not shown) [Example 177, N-(3″-(3-aminopyrrolidin-1-yl)-3-fluoro-2′-hydroxy-[1,1′:3′,1″-terphenyl]-4-yl)acetamide], the IC50 under setting [1] was 10 to 100 nM. For `CC(=O)N1CCC(=O)Nc2cc(-c3cccc(-c4cc(N5CCNCC5)no4)c3O)ccc21` [Example 29, 5-Acetyl-8-(2-hydroxy-3-(3-(piperazin-1-yl)isoxazol-5-yl)phenyl)-4,5-dihydro-1H-benzo[b][1,4]diazepin-2(3H)-one 2,2,2-trifluoroacetate], under setting [1], the IC50 was more than 100 nM.

Take `CC(=O)Nc1ccc(-c2cccc(-c3cccc(-c4ccnc(N)c4)c3)c2O)cc1F` [Example 204, N-(3″-(2-aminopyridin-4-yl)-3-fluoro-2′-hydroxy-[1,1′:3′,1″-terphenyl]-4-yl)acetamide]: the half-inhibitory concentration (IC50) under setting [1] was 1 to 10 nM.

For `CC(=O)Nc1ccc(-c2cccc(-c3cc(N4CCNCC4)no3)c2O)c(F)c1` [Example 30, N-(2-Fluoro-2′-hydroxy-3′-(3-(piperazin-1-yl)isoxazol-5-yl)-[1,1′-biphenyl]-4-yl)acetamide 2,2,2-trifluoroacetate], the IC50 under setting [1] was more than 100 nM. With `CC(=O)Nc1c(F)cc(-c2cccc(-c3cccc(N4CCNCC4)c3)c2O)cc1OC1CCC1` [Example 167, N-(3-cyclobutoxy-5-fluoro-2′-hydroxy-3″-(piperazin-1-yl)-[1,1′:3′,1″-terphenyl]-4-yl)acetamide], the IC50 under setting [1] was in the range of 1 to 10 nM.

Take `CC(=O)Nc1ccc(-c2cccc(-c3cc(N4CCNCC4)ccn3)c2O)cc1F` [Example 233, N-(3-fluoro-2′-hydroxy-3′-(4-(piperazin-1-yl)pyridin-2-yl)-[1,1′-biphenyl]-4-yl)acetamide]: the IC50 under setting [1] was more than 100 nM. For `CC(=O)Nc1ccc(-c2cccc(-c3cc(N4CCNCC4)sn3)c2O)cc1` [Example 8, N-(2′-Hydroxy-3′-(5-(piperazin-1-yl)isothiazol-3-yl)-[1,1′-biphenyl]-4-yl)acetamide], under setting [1], the IC50 is more than 100 nM. In the case of `O=C(CF)Nc1ccc(-c2cccc(-c3cc(N4CCNCC4)no3)c2O)cc1` [Example 66, 2-Fluoro-N-(2′-hydroxy-3′-(3-(piperazin-1-yl)isoxazol-5-yl)-[1,1′-biphenyl]-4-yl)acetamide 2,2,2-trifluoroacetate], for the setting “BRD4 BDII IC50, AlphaScreen assay”, the IC50 was more than 100 nM. For the compound `CC(=O)Nc1ccc(-c2cccc(-c3ccc4c(c3)OCCCN4C(C)=O)c2O)cc1F` [Example 104, N-(3′-(5-Acetyl-2,3,4,5-tetrahydrobenzo[b][1,4]oxazepin-8-yl)-3-fluoro-2′-hydroxy-[1,1′-biphenyl]-4-yl)acetamide], the IC50 under setting [1] is more than 100 nM.

Regarding `CC(=O)Nc1ccc(-c2cccc(-c3cc(N4CCN(C)CC4)no3)c2O)cc1F` [Example 150, N-(3-fluoro-2′-hydroxy-3′-(3-(4-methylpiperazin-1-yl)isoxazol-5-yl)-[1,1′-biphenyl]-4-yl)acetamide], the IC50 under setting [1] was in the range of 10 to 100 nM. Still for that read-out and setting: the same measure for `CC(=O)Nc1ccc(-c2cccc(-c3ccnc(N)c3)c2O)cc1F` [Example 111, N-(3′-(2-Aminopyridin-4-yl)-3-fluoro-2′-hydroxy-[1,1′-biphenyl]-4-yl)acetamide]: 10 to 100 nM. Turning to `CC(=O)Nc1ccc(-c2cccc(-c3cnn(C4CCNCC4)c3)c2O)cc1` [Example 15, N-(2′-Hydroxy-3′-(1-(piperidin-4-yl)-1H-pyrazol-4-yl)-[1,1′-biphenyl]-4-yl)acetamide], under setting [1], the IC50 is more than 100 nM.

As for `CC(=O)Nc1ccc(-c2cccc(-c3cccc(Cl)c3)c2O)cc1F` [Example 77, N-(3″-Chloro-3-fluoro-2′-hydroxy-[1,1′:3′,1″-terphenyl]-4-yl)acetamide], the IC50 under setting [1] was more than 100 nM.
